For one experiment, the system named is P12-ICHIKAWA
As to the kind of experiment: selective drug sensitivity score (sDSS, relative to normal bone marrow) (sDSS (score)); higher = more potent and effective on the cell line relative to normal bone marrow cells. The conditions noted are these: 72 h.
On to `CNC(=O)c1ccc(C)c(-n2c(C)cc(OCc3ccc(F)cc3F)c(Br)c2=O)c1` (top concentration 1000 nM), for which the “selective drug sensitivity score” value was determined as 0.
As to `CONC(=O)c1ccccc1Nc1cc(Nc2cc(C)nn2C(C)C)ncc1Cl` (top concentration 1000 nM), the “selective drug sensitivity score” value is -0.94.
`CCOc1ccn(-c2ccc(F)cc2)c(=O)c1C(=O)Nc1ccc(Oc2ccnc(N)c2Cl)c(F)c1` (top concentration 2500 nM): the “selective drug sensitivity score” value was found to be 3.
Consider `CC[C@@H]1[C@H](F)C(=O)N[C@@H]1COc1nccc2cc(C(N)=O)c(OC)cc12` (top concentration 10000 nM), for which the “selective drug sensitivity score” value turned out to be 0.18.
Regarding `C[C@H]1C[C@@H](n2c(Nc3ccc(OC(F)(F)F)cc3)nc3cc(CCC(=O)O)ccc32)CC(C)(C)C1` (top concentration 10000 nM), the “selective drug sensitivity score” value is 1.26.
Still for that read-out and setting: with `O=C(NCc1ccncc1)C12CC3CC(C1)CC(c1ccc(Cl)cc1)(C3)C2` (top concentration 50000 nM) the figure was 3.68.
Take `O=C(O)c1ccc(CN2CCC(CN[C@@H]3C[C@H]3c3ccccc3)CC2)cc1` (top concentration 100000 nM): the “selective drug sensitivity score” value was -0.62.
As for `COc1cc(N2CCN(C)CC2)ccc1Nc1nccc(-c2cn(C)c3cnccc23)n1` [AZ191] (top concentration 10000 nM), the “selective drug sensitivity score” value is -2.22.
On to `Cc1cc(Nc2nc(N[C@@H](C)c3ncc(F)cn3)ncc2Cl)[nH]n1` [AZD1480] (top concentration 1000 nM), for which the “selective drug sensitivity score” value was -4.28.
Turning to `COc1cc(CCc2cc(NC(=O)c3ccc(N4CC(C)NC(C)C4)cc3)n[nH]2)cc(OC)c1` (configuration not stated) [AZD4547] (top concentration 1000 nM), the “selective drug sensitivity score” value was -0.14.
The same measure, in the same setting: with `CN(C)C(=O)c1ccc(S(=O)(=O)c2ccc(NC(=O)[C@@](C)(O)C(F)(F)F)c(Cl)c2)cc1` [AZD7545] (top concentration 10000 nM) the figure was 2.7.
`COc1cc(C)c(/C=C/C(C)=C/C=C/C(C)=C/C(=O)O)c(C)c1C` [Acitretin] (top concentration 10000 nM): the “selective drug sensitivity score” value is -0.8.
For `CCC1(c2ccc(N)cc2)CCC(=O)NC1=O` (configuration not stated) [Aminoglutethimide] (top concentration 10000 nM), the “selective drug sensitivity score” value was 0.
On the same count and under the same terms, with `CNC(=O)c1ccc(N2C(=S)N(c3cnc(C#N)c(C(F)(F)F)c3)C(=O)C23CCC3)cc1F` [Apalutamide] (top concentration 10000 nM) the figure was 0.
For `N#CC1(c2ccc(NC(=O)c3cccnc3NCc3ccncc3)cc2)CCCC1` [Apatinib] (top concentration 10000 nM), the “selective drug sensitivity score” value amounted to 0.
Same read-out and setting: with `Cc1nc2cccc(N)c2c(=O)n1C1CCC(=O)NC1=O` (configuration not stated) [Avadomide (CC122)] (top concentration 10000 nM) the figure was 0.
For `Nc1nc(Nc2ccc3c(c2)CC[C@@H](N2CCCC2)CC3)nn1-c1cc2c(nn1)-c1ccccc1CCC2` [BGB324] (top concentration 10000 nM), the “selective drug sensitivity score” value came to 0.02.
`CC1(C)C(C(=O)Nc2ccc(S(=O)(=O)c3ccc(NC(=O)C4C(C)(C)C4(C)C)cc3)cc2)C1(C)C` [BRD7116] (top concentration 10000 nM): the “selective drug sensitivity score” value came to 0.66.
Regarding `CCS(=O)(=O)N1CC(CC#N)(n2cc(-c3ncnc4[nH]ccc34)cn2)C1` [Baricitinib] (top concentration 2500 nM), the “selective drug sensitivity score” value was -1.94.

Another experiment deals with PF-382. The description is as above. As to conditions: 72 h.
Regarding `CNC(=O)c1ccc(C)c(-n2c(C)cc(OCc3ccc(F)cc3F)c(Br)c2=O)c1` (top concentration 1000 nM), the “selective drug sensitivity score” value is 0.
Regarding `CONC(=O)c1ccccc1Nc1cc(Nc2cc(C)nn2C(C)C)ncc1Cl` (top concentration 1000 nM), the “selective drug sensitivity score” value was -0.94.
For `CCOc1ccn(-c2ccc(F)cc2)c(=O)c1C(=O)Nc1ccc(Oc2ccnc(N)c2Cl)c(F)c1` (top concentration 2500 nM), the “selective drug sensitivity score” value came out at 0.
Regarding `CC[C@@H]1[C@H](F)C(=O)N[C@@H]1COc1nccc2cc(C(N)=O)c(OC)cc12` (top concentration 10000 nM), the “selective drug sensitivity score” value was -0.42.
The same measure, in the same setting: with `C[C@H]1C[C@@H](n2c(Nc3ccc(OC(F)(F)F)cc3)nc3cc(CCC(=O)O)ccc32)CC(C)(C)C1` (top concentration 10000 nM) the figure was 0.66; with `O=C(NCc1ccncc1)C12CC3CC(C1)CC(c1ccc(Cl)cc1)(C3)C2` (top concentration 50000 nM), 0.48; with `O=C(O)c1ccc(CN2CCC(CN[C@@H]3C[C@H]3c3ccccc3)CC2)cc1` (top concentration 100000 nM), -0.42.
Turning to `COc1cc(N2CCN(C)CC2)ccc1Nc1nccc(-c2cn(C)c3cnccc23)n1` [AZ191] (top concentration 10000 nM), the “selective drug sensitivity score” value was -1.82.
`Cc1cc(Nc2nc(N[C@@H](C)c3ncc(F)cn3)ncc2Cl)[nH]n1` [AZD1480] (top concentration 1000 nM): the “selective drug sensitivity score” value was -4.08.
The same measure, in the same setting: with `COc1cc(CCc2cc(NC(=O)c3ccc(N4CC(C)NC(C)C4)cc3)n[nH]2)cc(OC)c1` (configuration not stated) [AZD4547] (top concentration 1000 nM) the figure was -0.14; with `CN(C)C(=O)c1ccc(S(=O)(=O)c2ccc(NC(=O)[C@@](C)(O)C(F)(F)F)c(Cl)c2)cc1` [AZD7545] (top concentration 10000 nM), 3.1.
For the compound `COc1cc(C)c(/C=C/C(C)=C/C=C/C(C)=C/C(=O)O)c(C)c1C` [Acitretin] (top concentration 10000 nM), the “selective drug sensitivity score” value is -1.4.
For `CCC1(c2ccc(N)cc2)CCC(=O)NC1=O` (configuration not stated) [Aminoglutethimide] (top concentration 10000 nM), the “selective drug sensitivity score” value turned out to be 0.
As to `CNC(=O)c1ccc(N2C(=S)N(c3cnc(C#N)c(C(F)(F)F)c3)C(=O)C23CCC3)cc1F` [Apalutamide] (top concentration 10000 nM), the “selective drug sensitivity score” value amounted to 0.
As for `N#CC1(c2ccc(NC(=O)c3cccnc3NCc3ccncc3)cc2)CCCC1` [Apatinib] (top concentration 10000 nM), the “selective drug sensitivity score” value came out at 0.
Turning to `Cc1nc2cccc(N)c2c(=O)n1C1CCC(=O)NC1=O` (configuration not stated) [Avadomide (CC122)] (top concentration 10000 nM), the “selective drug sensitivity score” value was 0.
Take `Nc1nc(Nc2ccc3c(c2)CC[C@@H](N2CCCC2)CC3)nn1-c1cc2c(nn1)-c1ccccc1CCC2` [BGB324] (top concentration 10000 nM): the “selective drug sensitivity score” value amounted to 0.32.
As to `CC1(C)C(C(=O)Nc2ccc(S(=O)(=O)c3ccc(NC(=O)C4C(C)(C)C4(C)C)cc3)cc2)C1(C)C` [BRD7116] (top concentration 10000 nM), the “selective drug sensitivity score” value came to 0.36.
Turning to `CCS(=O)(=O)N1CC(CC#N)(n2cc(-c3ncnc4[nH]ccc34)cn2)C1` [Baricitinib] (top concentration 2500 nM), the “selective drug sensitivity score” value was -1.94.

For a further experiment, the system named is RCH-ACV. The description is as above. The conditions noted are these: 72 h.
As for `CNC(=O)c1ccc(C)c(-n2c(C)cc(OCc3ccc(F)cc3F)c(Br)c2=O)c1` (top concentration 1000 nM), the “selective drug sensitivity score” value stood at 7.4.
Regarding `CONC(=O)c1ccccc1Nc1cc(Nc2cc(C)nn2C(C)C)ncc1Cl` (top concentration 1000 nM), the “selective drug sensitivity score” value was -0.94.
Take `CCOc1ccn(-c2ccc(F)cc2)c(=O)c1C(=O)Nc1ccc(Oc2ccnc(N)c2Cl)c(F)c1` (top concentration 2500 nM): the “selective drug sensitivity score” value was 1.
As for `CC[C@@H]1[C@H](F)C(=O)N[C@@H]1COc1nccc2cc(C(N)=O)c(OC)cc12` (top concentration 10000 nM), the “selective drug sensitivity score” value turned out to be 2.58.
With `C[C@H]1C[C@@H](n2c(Nc3ccc(OC(F)(F)F)cc3)nc3cc(CCC(=O)O)ccc32)CC(C)(C)C1` (top concentration 10000 nM), the “selective drug sensitivity score” value was -0.14.
On the same count and under the same terms, with `O=C(NCc1ccncc1)C12CC3CC(C1)CC(c1ccc(Cl)cc1)(C3)C2` (top concentration 50000 nM) the figure was 4.08; with `O=C(O)c1ccc(CN2CCC(CN[C@@H]3C[C@H]3c3ccccc3)CC2)cc1` (top concentration 100000 nM), -0.62; with `COc1cc(N2CCN(C)CC2)ccc1Nc1nccc(-c2cn(C)c3cnccc23)n1` [AZ191] (top concentration 10000 nM), 2.38.
On to `Cc1cc(Nc2nc(N[C@@H](C)c3ncc(F)cn3)ncc2Cl)[nH]n1` [AZD1480] (top concentration 1000 nM), for which the “selective drug sensitivity score” value was -2.18.

These data come from the supplement of paper PMC8967900.
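Note: ALL cell lines in 384-well plates, five doses spanning 10,000-fold, each plate scaled between vehicle and 100 µmol/L benzalkonium chloride controls, sDSS an adapted area-under-curve metric.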
